2 compounds from patent publication US12022844B2, “Nutritional composition, food/drink composition using nutritional composition, and modified milk powder using nutritional composition” (priority 2018, dated 2024) can be followed below.

The test system of assay [1] is strains in Table 2 except for Bifidobacterium infantis. Kind of assay: Availability of HMOs by probiotics (single culturing, summary). It is filed as cell-based. As to conditions: single bacterial culturing, 8 h; summary of Tables 6 and 7. The procedure:
(§1) The medium prepared in the above (3) was dispensed at a capacity that is half the capacity for culturing in a 96-well plate, and the bacterial solution prepared in the above (2) was dispensed at a remaining half capacity such that the bacterial solution had 6%. Then, a final sugar concentration was set to 2%. The plate into which the bacterial solution was dispensed was anaerobically cultured at 37° C. for 8 h.
(§2) OD650 was measured from each well in the plates in the above (4) and the above (5) before (0 h) culturing and after (8 h) culturing, by MICROPLATE READER SH-9000 (manufactured by CORONA ELECTRIC). After turbidity measurement, microbial cells were collected, and DNA extraction was performed. After the DNA extraction, the number of proliferating bacteria of Bifidobacteria/lactobacilli was analyzed by using the bacterial species-specific primer noted in Table 4, by a quantitative PCR method (see “Structural analysis of intestinal flora”—analysis of bacterial flora in human feces using quantitative PCR—by Kouichi Watanabe, Enterobacteriological journal, 20:35-42, 2006).
(§3) Regarding strains in Table 2, each strain was cultured as a single bacterium by 2′-FL or LNnT (HMOs) as a sugar source, and OD650 was measured. The results for 2′-FL are noted in Table 6 below, and the results for LNnT are noted in Table 7 below.

Assay [2] concerns Lactobacillus rhamnosus ATCC7469. As to the kind of experiment: Mix-culturing with Bifidobacterium bifidum by HMO as sugar source, quantitative PCR. Format: cell-based. Particulars: ATCC 7469^T mix-cultured with Bifidobacterium bifidum (NITE BP-02429), sugar source 2%, Table 8. Here is the method: (§4) A10% solution of glucose (manufactured by Nakarai Tesque Inc.), and 2′-FL ((≥95%) Funakoshi, available from sigma), and LNnT (manufactured by ELICITYL) as examples of HMOs was prepared with ion exchanged water, and was subjected to sterile filtration using Millex-GV (SLGV033RS).
(§5) Lactobacilli MRS Broth (BD) (0.05% L-Cysteine Hydrochloride for Bacteria of the genus Bifidobacterium) was added to strains of Table 1 below (bacteria belonging to Bifidobacterium bifidum) and Table 2 below. After a sterilization treatment, 3% of the bacterial solution was inoculated, and anaerobically cultured (pre-pre cultured) at 37° C. for 16 h.
(§6) The following day, 1% glucose was added to a modified BL agar medium (“Studies on Bifidobacteria” by Tomotari Mitsuoka, p. 306, Japan Bifidus Foundation, issued in 1994) noted in Table 3, for preparation. After a sterilization treatment, 3% of the pre-pre cultured bacterial solution was inoculated, and anaerobically pre-cultured (pre-cultured) at 37° C. for 12 h.
(§7) The pre-cultured bacterial solution was collected and washed once with a sterile physiological saline solution. Then, mass-up was performed to an equal volume with the modified BL agar medium (“Studies on Bifidobacteria” by Tomotari Mitsuoka, p. 306, Japan Bifidus Foundation, issued in 1994) noted in Table 3 to prepare a suspended bacterial solution.
(§8) The modified BL agar medium (“Studies on Bifidobacteria” by Tomotari Mitsuoka, p. 306, Japan Bifidus Foundation, issued in 1994) noted in Table 3 was prepared at a capacity of 60%, and was subjected to an autoclave sterilization treatment. Then, 40% of each sugar solution prepared in (1) was aseptically added so as to prepare a medium with a sugar concentration of 4%.
(§9) The medium prepared in the above (3) was dispensed at a capacity that is half the capacity for aseptic culturing in a 96-well plate, and each of the bacterial solutions of strains of bacteria belonging to Bifidobacterium bifidum in Table 1 and probiotics having a low ability to assimilate human milk oligosaccharides in Table 2, which was prepared in the above (2), was dispensed at a remaining […] capacity into the medium prepared in the above (3) such that the bacterial solution had 12%. Then, a final sugar concentration was set to 2%. The plate into which the bacterial solution was dispensed was anaerobically cultured at 37° C. for 8 h.
as §2
(§10) It was decided to culture Bifidobacterium bifidum (NITE BP-02429) in which availability of 2′-FL or LNnT was found as described above, in combination with strains in Table 2, which cannot use 2′-FL or LNnT. Bifidobacterium bifidum (NITE BP-02429) and the strains in Table 2, which cannot use 2′-FL or LNnT, were mix-cultured by 2′-FL or LNnT as a sugar source, and after culturing for 8 h, the proliferation rate of the number of bacteria of each strain (proliferation rate=the number of bacteria after mix-culturing for 8 h/the number of bacteria after single bacterial culturing) was measured by a quantitative PCR method using each strain-specific oligonucleotide primer noted in Table 4, for the strain in Table 2.

Assay [3] concerns Lactobacillus plantarum ATCC14917. The assay is described as above. As to conditions: ATCC 14917^T mix-cultured with Bifidobacterium bifidum (NITE BP-02429), sugar source 2%, Table 8. It is filed as cell-based. The procedure:
as §4, §5, §6, §7, §8, §9, §2, §10

Assay [4] deals with Bifidobacterium adolescentis ATCC15703. Described as above. Format: cell-based. Particulars: ATCC 15703^7 mix-cultured with Bifidobacterium bifidum (NITE BP-02429), sugar source 2%, Table 8. Here is the method: as §4, §5, §6, §7, §8, §9, §2, §10
Assay [5] has as its system Bifidobacterium pseudolongum ATCC25526. Described as above. As to conditions: ATCC 25526^T mix-cultured with Bifidobacterium bifidum (NITE BP-02429), sugar source 2%, Table 8. It is filed as cell-based. The procedure:
as §4, §5, §6, §7, §8, §9, §2, §10

The test system of assay [6] is Lactobacillus paracasei ATCC25302. As to the kind of experiment: Single bacterial culturing with HMO as sugar source, OD650. It is filed as cell-based. As to conditions: ATCC 25302^T, sugar source 2%, 8 h. Here is the method:
as §4, §5, §6, §7, §8, §1, §2, §3

The test system of assay [7] is Lactobacillus acidophhilus ATCC4356. Kind of assay: Mix-culturing with Bifidobacterium bifidum by HMO as sugar source, quantitative PCR. It is filed as cell-based, Lactobacillus acidophilus. As to conditions: ATCC 4356^T mix-cultured with Bifidobacterium bifidum (NITE BP-02429), sugar source 2%, Table 8. Here is the method: as §4
(§11) Lactobacilli MRS Broth (BD) (0.05% L-Cysteine Hydrochloride for Bacteria of the genus Bifidobacterium) was added to strains of Table 1 below (bacteria belonging to Bifidobacterium bifidum) and Table 2 below. After a sterilization treatment, 3% of the bacterial solution was inoculated, and anaerobically cultured (pre-pre cultured) at 37° C. for 16 h. […]
(§12) OD650 was measured from each well in the plates in the above (4) and the above (5) before (0 h) culturing and after (8 h) culturing, by MICROPLATE READER SH-9000 (manufactured by CORONA ELECTRIC). […] After the DNA extraction, the number of proliferating bacteria of Bifidobacteria/lactobacilli was analyzed by using the bacterial species-specific primer noted in Table 4, by a quantitative PCR method (see “Structural analysis of intestinal flora”—analysis of bacterial flora in human feces using quantitative PCR—by Kouichi Watanabe, Enterobacteriological journal, 20:35-42, 2006). […]

The subject of assay [8] is Bifidobacterium peseudocatenulatum ATCC27919. The assay is described as above. Format: cell-based, Bifidobacterium pseudocatenulatum. As to conditions: ATCC 27919^T mix-cultured with Bifidobacterium bifidum (NITE BP-02429), sugar source 2%, Table 8. Here is the method: as §4, §11, §12
Assay [9] deals with Bifidobacterium longum subspecies longum BB536. The assay is described as above. Format: cell-based. Particulars: for Proliferation rate (number of bacteria after mix-culturing for 8 h/number of bacteria after single bacterial culturing): BB536 mix-cultured with Bifidobacterium bifidum (NITE BP-02429), sugar source 2%, Table 8; for Proliferation rate of BB536 (mix-cultured bacteria after 8 h/single bacterial culturing 8 h): Table 9; for proliferation of BB536 through mix-culturing with bacteria belonging to Bifidobacterium bifidum: summary of Table 9. The procedure: as §4, §5, §6, §7, §8, §9, §2, §10
Seven strains of Bifidobacterium bifidum in Table 1 and Bifidobacterium longum subspecies longum BB536 which cannot use 2′-FL or LNnT were mix-cultured by 2′-FL or LNnT as a sugar source. […]

The mark [10] stands for this setting: mix-cultured with Bifidobacterium bifidum ATCC 29521^T.
The mark [11] stands for this setting: mix-cultured with Bifidobacterium bifidum NITE BP-1252.
Where [12] appears, read: mix-cultured with Bifidobacterium bifidum NITE BP-02429.
Setting [13] is: mix-cultured with Bifidobacterium bifidum NITE BP-02431.
Setting [14] is: mix-cultured with Bifidobacterium bifidum NITE BP-02432.
The mark [15] stands for this setting: mix-cultured with Bifidobacterium bifidum NITE BP-02433.
Setting [16] is: mix-cultured with Bifidobacterium bifidum NITE P-02648.

Consider 2′-fucosyllactose [2′-FL], for which, in [1], the “assimilability by strains in Table 2 except for Bifidobacterium infantis” value was “had no assimilability in 2′-FL or LNnT (HMOs), or a low assimilability”. The “Proliferation rate (number of bacteria after mix-culturing for 8 h/number of bacteria after single bacterial culturing)” value in assay [2] is 2.69; in assay [3], 1.76; in assay [4] it was 1.91; in assay [5], 1.24; in assay [7], 3.54; in assay [8] it was 3.08. Further, the “Proliferation rate (number of bacteria after mix-culturing for 8 h/number of bacteria after single bacterial culturing)” value in assay [9] worked out at 4.30. For the same compound, the “OD650 increase value” in assay [6] (Table 6) was −0.011. In addition, the “Proliferation rate of BB536 (mix-cultured bacteria after 8 h/single bacterial culturing 8 h)” value (from here on “Proliferation rate of BB536”) was found to be 1.35 in [9] (setting [10]); 3.17 in [9] (setting [11]); 4.13 in assay [9] (setting [12]); 6.33 in [9] (setting [13]); 3.16 in assay [9] (setting [14]); 5.90 in [9] (setting [15]). Also, the “Proliferation rate of BB536” value in assay [9] (setting [16]) turned out to be 9.97. The “proliferation of BB536 through mix-culturing with bacteria belonging to Bifidobacterium bifidum” value in assay [9] is listed as “proliferates”.

Take `CC(=O)N[C@H]1[C@H](O[C@H]2[C@@H](O)[C@@H](CO)O[C@@H](O[C@H]3[C@H](O)[C@@H](O)C(O)O[C@@H]3CO)[C@@H]2O)O[C@H](CO)[C@@H](O[C@@H]2O[C@H](CO)[C@H](O)[C@H](O)[C@H]2O)[C@@H]1O` (mixture of isomers) [LNnT, lacto-N-neotetraose]: the “assimilability by strains in Table 2 except for Bifidobacterium infantis” value in assay [1] is recorded as “had no assimilability in 2′-FL or LNnT (HMOs), or a low assimilability”. Further, the “Proliferation rate (number of bacteria after mix-culturing for 8 h/number of bacteria after single bacterial culturing)” value in assay [2] turned out to be 5.03; in [3], 2.58; in assay [4], 1.53; in [5] it was 0.98; in assay [7], 3.77; in [8], 1.55. In addition, in assay [9], the “Proliferation rate (number of bacteria after mix-culturing for 8 h/number of bacteria after single bacterial culturing)” value worked out at 2.13. For the same compound, in assay [6] (Table 7), the OD650 increase value is 0.052. For the same compound, the “Proliferation rate of BB536” value in assay [9] (setting [10]) is 1.07; in assay [9] (setting [11]), 1.64; in assay [9] (setting [12]), 3.57; in [9] (setting [13]), 3.02; in [9] (setting [14]), 1.51; in [9] (setting [15]), 3.08. Besides, the “Proliferation rate of BB536” value in assay [9] (setting [16]) came to 4.95. The “proliferation of BB536 through mix-culturing with bacteria belonging to Bifidobacterium bifidum” value in assay [9] is recorded as “proliferates”.
